Laboratory results: patent publication US7291642B2, “Bradykinin-B1 antagonists, process for their preparation and their use as medicaments” (Boehringer Ingelheim International GmbH, priority 2004, dated 2007)
Structures can show the parent of a compound that is named as a salt.

target: T1, hBK1 receptor (Homo sapiens, UniProt P46663); assay: hBK1 receptor binding; conditions: membranes of CHO cells expressing the hBK1 receptor; radioligand 0.5 to 1.0 nM kallidin (DesArg10, Leu9), [3,4-prolyl-3,43H(N)]; 60 minutes, room temperature
T1 construct: expressed in transfected cells; host or cells: CHO cells (membrane homogenate)
T1 sequence (P46663 1-353): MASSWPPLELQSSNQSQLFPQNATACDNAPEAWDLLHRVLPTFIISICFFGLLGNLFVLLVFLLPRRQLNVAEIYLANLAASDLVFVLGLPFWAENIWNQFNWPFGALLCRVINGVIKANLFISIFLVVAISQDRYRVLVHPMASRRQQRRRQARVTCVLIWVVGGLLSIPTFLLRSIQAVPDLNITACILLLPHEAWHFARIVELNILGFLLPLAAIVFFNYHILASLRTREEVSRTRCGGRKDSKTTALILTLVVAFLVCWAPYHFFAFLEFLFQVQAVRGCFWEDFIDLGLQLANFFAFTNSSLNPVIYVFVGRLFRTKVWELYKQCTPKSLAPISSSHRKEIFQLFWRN
Method: CHO cells expressing the hBK1 receptor are cultivated in Dulbecco's modified medium. The medium from confluent cultures is removed and the cells are washed with PBS buffer, scraped off and isolated by centrifugation. The cells are then homogenized in suspension and the homogenate is centrifuged and resuspended. The protein content is determined and the membrane preparation obtained in this manner is then frozen at −80° C.
After thawing, 200 μl of the homogenate (50 to 100 μg of proteins/assay) are incubated at room temperature with 0.5 to 1.0 nM of kallidin (DesArg10, Leu9), [3,4-prolyl-3,43H(N)] and increasing concentrations of the test substance in a total volume of 250 μl for 60 minutes. The incubation is terminated by rapid filtration through GF/B glass fibre filters which had been pretreated with polyethyleneimine (0.3%). The protein-bound radioactivity is measured in a TopCount NXT. Non-specific binding is defined as radioactivity bound in the presence of 1.0 μM of […]. The concentration/binding curve is analysed using a computer-assisted nonlinear curve fitting. The Ki which corresponds to the test substance is determined using the data obtained in this manner.

| Compound | Ki |
| --- | --- |
| CN(CCc1ccc(C2=NCCN2)cc1)C(=O)C1CCCN(S(=O)(=O)c2cccc(Cl)c2Cl)C1 (centres unmarked) [C, 1-[(2,3-dichlorobenzenesulphonyl)piperidin-3-yl]-N-({2-[4-(4,5-dihydro-1H-imidazol-2-yl)phenyl]ethyl}methyl)carboxamide] | 957 nM |
| CN(CCN1CCN(CCc2ccc(C3=NCCN3)cc2)C1=O)S(=O)(=O)c1cccc(Cl)c1Cl [E, 2,3-dichloro-N-[2-(3-{2-[4-(4,5-dihydro-1H-imidazol-2-yl)phenyl]ethyl}-2-oxoimidazolidin-1-yl)ethyl]-N-methylbenzenesulphonamide hydrochloride] | 1520 nM |

Now those with a lower Ki, led by results:

| Ki | Compound |
| --- | --- |
| 26 nM | Cc1cc(S(=O)(=O)N2CCCCC2CCC(=O)N(C)CCc2ccc(C3=NCCN3)cc2)c(C)cc1Cl (centres unmarked) [B, 3-[1-(4-chloro-2,5-dimethylbenzenesulphonyl)piperidin-2-yl]-N-{2-[4-(4,5-dihydro-1H-imidazol-2-yl)phenyl]ethyl}-N-methylpropionamide hydrochloride] |
| 170 nM | Cc1cc(S(=O)(=O)N(C)CCNC(=O)CCc2ccc(C3=NCCN3)cc2)c(C)cc1Cl [D, N-{2-[(4-chloro-2,5-dimethylbenzenesulphonyl)methylamino]ethyl}-3-[4-(4,5-dihydro-1H-imidazol-2-yl)phenyl]propionamide] |
| 62 nM | CC(C)N(CCCC(=O)N(C)CCc1ccc(C2=NCCN2)cc1)S(=O)(=O)c1cccc(Cl)c1Cl [A, 4-[(2,3-dichlorobenzenesulphonyl)isopropylamino]-N-{2-[4-(4,5-dihydro-1H-imidazol-2-yl)phenyl]ethyl}-N-methylbutyramide] |
